The text below walks through data of ChEMBL document CHEMBL3872282, “Dithiocarbamates effectively inhibit the β-carbonic anhydrase from the dandruff-producing fungus Malassezia globosa” (Bioorg Med Chem, 2017).

pKi: −log10 of the molar value.

This assay is described as follows: Inhibition of Malassezia globosa beta-carbonic anhydrase preincubated for 15 mins prior to testing by phenol red-based stopped-flow CO2 hydration assay.
In the case of `O=C(O)C1CCCCN1C(=S)S` (configuration not stated), the pKi – broadly, the negative decadic logarithm of the Ki, by convention in mol/L – was 5.62.
The result for `OCCCCCNC(=S)S` reads 6.42; that for `S=C(S)N[C@H]1CN2CCC1CC2`, 6.31.
The result for `S=C(S)N[C@@H]1CN2CCC1CC2` reads 6.14; that for `OC1CCCN(C(=S)S)C1` (configuration not stated), 6.17.
The result for `O=C(O)C1CCCN(C(=S)S)C1` (configuration not stated) reads 6.14.
`O=C(O)[C@@H]1CCCN(C(=S)S)C1` gave a pKi of 6.24.
The result for `O=C(O)[C@H]1CCCN(C(=S)S)C1` reads 6.03.
The result for `O=C(O)C1CCN(C(=S)S)CC1` reads 6.25; that for `CC1COCCN1C(=S)S` (configuration not stated), 6.18.
The result for `O=C(O)C1COCCN1C(=S)S` (configuration not stated) reads 5.32; that for `O=C(CN1CCN(C(=S)S)CC1)NC1CCCCC1`, 6.10; that for `S=C(S)NCCc1ccccc1`, 5.33.
With `NS(=O)(=O)c1ccc(CCNC(=S)S)cc1`, the pKi is 6.04.
In the case of `OCCCCNC(=S)S`, the negative-log Ki (pKi) was 5.21.
As for `CC(C)(C)OC(=O)NC1CCCN(C(=S)S)C1` (configuration not stated), the figure is 6.19; as for `OCCCNC(=S)S`, 5.50.
The result for `S=C(S)N1CCCCC1` reads 6.11.
The result for `CC(=O)NC1CCCN(C(=S)S)C1` (configuration not stated) reads 6.05; that for `CN(C)CCNC(=S)S`, 5.53.
`S=C(S)NC1CN2CCC1CC2` (racemic) showed a pKi of 6.19.
The compound `CC(=O)Nc1nnc(S(N)(=O)=O)s1` [ACETAZOLAMIDE] had a negative logarithm of the Ki (pKi) of 4.13.
